Source: paper PMC7930720, “Functional Expression of the Human Glucose Transporters GLUT2 and GLUT3 in Yeast Offers Novel Screening Systems for GLUT-Targeting Drugs” (Frontiers in Molecular Biosciences, 2021)

Tests used:
Assay type in all cases: cell-based
GLUT2 [1] = biological target: T1, GLUT2 (Homo sapiens, UniProt P11168, A89S/DEL55-88/Q455R); experiment: inhibition of […]-glucose ([…]) uptake in hxt0 EBY.S7 yeast expressing the transporter; growth assay
T1 construct: gene SLC2A2
T1 sequence (P11168 with tags, fused parts or gaps DEL55-88/A89S/Q455R): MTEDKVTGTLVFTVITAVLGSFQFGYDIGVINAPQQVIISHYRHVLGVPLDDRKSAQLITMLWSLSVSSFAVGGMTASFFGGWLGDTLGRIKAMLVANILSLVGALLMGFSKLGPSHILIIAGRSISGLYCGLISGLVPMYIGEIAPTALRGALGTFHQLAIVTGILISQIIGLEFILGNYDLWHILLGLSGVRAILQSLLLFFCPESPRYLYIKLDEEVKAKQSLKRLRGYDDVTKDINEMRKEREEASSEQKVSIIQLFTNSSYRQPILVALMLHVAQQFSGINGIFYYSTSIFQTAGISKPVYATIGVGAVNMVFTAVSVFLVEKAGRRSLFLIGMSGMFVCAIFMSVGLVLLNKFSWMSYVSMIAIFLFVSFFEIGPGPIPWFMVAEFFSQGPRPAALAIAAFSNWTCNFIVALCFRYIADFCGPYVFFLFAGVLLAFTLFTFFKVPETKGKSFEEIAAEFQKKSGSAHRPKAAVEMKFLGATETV

GLUT3 [2] = biological target: T2, GLUT3 (Homo sapiens, UniProt P11169, S66Y); experiment: as above
T2 construct: gene SLC2A3; GLUT3S66Y
T2 sequence (P11169 1-496 S66Y): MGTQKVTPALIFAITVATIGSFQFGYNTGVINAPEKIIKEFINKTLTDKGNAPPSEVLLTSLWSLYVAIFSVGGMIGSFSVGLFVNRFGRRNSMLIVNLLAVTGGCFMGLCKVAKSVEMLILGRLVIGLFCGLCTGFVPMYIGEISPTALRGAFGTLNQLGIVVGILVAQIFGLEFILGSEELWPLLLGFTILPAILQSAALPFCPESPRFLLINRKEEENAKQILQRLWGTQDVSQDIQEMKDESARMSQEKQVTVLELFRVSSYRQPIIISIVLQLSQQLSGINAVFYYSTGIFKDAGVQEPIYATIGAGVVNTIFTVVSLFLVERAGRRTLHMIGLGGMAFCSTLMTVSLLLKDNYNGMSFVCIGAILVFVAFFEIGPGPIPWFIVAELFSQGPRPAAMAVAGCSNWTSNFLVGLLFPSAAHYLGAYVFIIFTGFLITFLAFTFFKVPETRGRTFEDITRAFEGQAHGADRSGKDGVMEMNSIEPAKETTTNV

GLUT2 [3] = biological target: T1, GLUT2; experiment: inhibition of […]-glucose ([…]) uptake in hxt0 EBY.S7 yeast expressing the transporter
GLUT3 [4] = biological target: T2, GLUT3; experiment: as above

SMILES	IC50 (GLUT2 [1])	IC50 (GLUT3 [2])	IC50 (GLUT2 [3])	IC50 (GLUT3 [4])
O=C(CCc1ccc(O)cc1)c1c(O)cc(O)cc1O [phloretin]	1.07 ± 0.11 µM	22.4 ± 1.8 µM		
O=c1c(O)c(-c2ccc(O)c(O)c2)oc2cc(O)cc(O)c12 [quercetin]			3.22 ± 0.45 µM	11.6 ± 0.6 µM
